Publication PMC10449877, “Structural basis of peptidoglycan synthesis by E. coli RodA-PBP2 complex” (Nature Communications, 2023)

T1: E. coli RodA-PBP2 fusion (PBP2 TP domain) (Escherichia coli, UniProt P0AD65)
T1 construct: gene mrdA; with Peptidoglycan glycosyltransferase MrdB
T1 sequence (P0AD65 1-633): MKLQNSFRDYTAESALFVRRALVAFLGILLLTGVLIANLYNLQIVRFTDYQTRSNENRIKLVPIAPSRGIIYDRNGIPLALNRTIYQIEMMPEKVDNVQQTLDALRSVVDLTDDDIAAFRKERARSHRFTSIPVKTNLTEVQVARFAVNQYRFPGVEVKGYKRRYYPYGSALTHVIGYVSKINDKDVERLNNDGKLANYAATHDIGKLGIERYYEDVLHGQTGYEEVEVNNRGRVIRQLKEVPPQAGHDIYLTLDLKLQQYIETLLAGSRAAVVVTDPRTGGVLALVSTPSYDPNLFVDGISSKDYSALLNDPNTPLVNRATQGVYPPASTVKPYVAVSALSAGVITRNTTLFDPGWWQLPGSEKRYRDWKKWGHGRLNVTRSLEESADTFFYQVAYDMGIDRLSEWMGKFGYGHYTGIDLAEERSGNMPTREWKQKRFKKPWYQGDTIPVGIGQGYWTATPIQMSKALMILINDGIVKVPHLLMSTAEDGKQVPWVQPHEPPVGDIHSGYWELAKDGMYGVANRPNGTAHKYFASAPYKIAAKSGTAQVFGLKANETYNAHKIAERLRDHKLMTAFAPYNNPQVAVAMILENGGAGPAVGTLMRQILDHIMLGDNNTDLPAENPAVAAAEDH
T1 sequence (P0ABG7 1-370 partner): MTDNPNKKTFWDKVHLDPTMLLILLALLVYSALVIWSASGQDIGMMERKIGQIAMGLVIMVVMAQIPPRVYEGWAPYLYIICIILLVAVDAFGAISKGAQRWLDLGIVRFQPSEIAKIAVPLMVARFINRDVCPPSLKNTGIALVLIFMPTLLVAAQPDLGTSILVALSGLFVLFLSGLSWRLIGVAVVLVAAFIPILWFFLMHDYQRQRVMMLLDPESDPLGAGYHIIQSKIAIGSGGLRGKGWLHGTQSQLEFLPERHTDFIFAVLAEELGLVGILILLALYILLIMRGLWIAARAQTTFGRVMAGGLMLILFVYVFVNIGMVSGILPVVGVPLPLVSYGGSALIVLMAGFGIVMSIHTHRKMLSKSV

T2: E. coli PBP2 (Escherichia coli str. K-12 substr. …, UniProt P0AD65 1-633)
T2 construct: K-12 substr; MG1655, UniProt P0AD65; residues 10-343, 401-430, 457-540 and 569-612 built in the map; PBP2 Gln99 is residue 476 in the fusion; the poly-histidine tag of the fusion is written on m1; also called transpeptidase (TP); source: E. coli BL21(DE3) pLysS, purified (Ni-NTA, SEC), reconstituted in POPG / MSP1E3D1 nanodiscs
T2 sequence (looked up): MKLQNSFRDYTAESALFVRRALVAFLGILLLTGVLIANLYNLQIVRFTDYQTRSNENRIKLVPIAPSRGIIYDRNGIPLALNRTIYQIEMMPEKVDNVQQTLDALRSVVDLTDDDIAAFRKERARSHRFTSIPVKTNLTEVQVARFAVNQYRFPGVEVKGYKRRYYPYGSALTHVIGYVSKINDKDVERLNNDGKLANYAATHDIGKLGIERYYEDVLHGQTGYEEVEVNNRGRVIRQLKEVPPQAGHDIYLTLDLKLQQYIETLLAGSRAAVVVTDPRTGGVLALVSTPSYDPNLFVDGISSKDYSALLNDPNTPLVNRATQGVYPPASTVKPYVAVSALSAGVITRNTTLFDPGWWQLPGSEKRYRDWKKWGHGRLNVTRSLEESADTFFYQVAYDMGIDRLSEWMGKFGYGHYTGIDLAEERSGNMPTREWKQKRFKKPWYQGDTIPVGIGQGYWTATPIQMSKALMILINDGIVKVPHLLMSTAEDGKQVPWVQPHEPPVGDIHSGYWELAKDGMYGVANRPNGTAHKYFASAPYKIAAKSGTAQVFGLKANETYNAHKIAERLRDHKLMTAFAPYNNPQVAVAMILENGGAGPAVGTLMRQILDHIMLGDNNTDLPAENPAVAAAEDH


Tests used:
[1] = molecular target: T1, E. coli RodA-PBP2 fusion (PBP2 TP domain); experiment: fluorescent bocillin labelling, SDS-PAGE; type: binding; conditions: covalent; TP active site of PBP2; labelled compound; 15 min
E. coli PBP2 = molecular target: T2, E. coli PBP2; experiment: cryo-EM structure; single-particle cryo-EM of the RodA-PBP2 fusion (one chain, TSGSGSGS linker) in POPG / MSP1E3D1 nanodiscs; 20 mM HEPES pH 7, 150 mM NaCl, 1 mM TCEP; 0.66 mg/ml (5.9 uM); conditions: both partners purified

Molecule | fluorescent bocillin labelling, SDS-PAGE [1] | binding result (E. coli PBP2)
Cc1cc(C)n2c1C=C1C=CC(CCC(=O)Nc3ccc(OCC(=O)N[C@@H]4C(=O)N5[C@@H]4SC(C)(C)[C@@H]5C(=O)O)cc3)=[N+]1[B-]2(F)F [bocillin] | The TP domain binds (and is covalently modified by) a fluorescent penicillin mimic bocillin | –
E. coli RodA (enzyme, UniProt P0ABG7 1-370, looked up, RodA, Escherichia coli str; K-12 substr; MG1655; UniProt ID printed as '0ABG7'; residues 9-93 and 109-364 built in the map; They are written as two molecules for the pair row; No TEV cleavage is described; also called SEDS glycosyltransferase (GT); RodA part of the RodA-PBP2 fusion; source: E. coli BL21(DE3) pLysS, purified (Ni-NTA, SEC), reconstituted in POPG / MSP1E3D1 nanodiscs) MTDNPNKKTFWDKVHLDPTMLLILLALLVYSALVIWSASGQDIGMMERKIGQIAMGLVIMVVMAQIPPRVYEGWAPYLYIICIILLVAVDAFGAISKGAQRWLDLGIVRFQPSEIAKIAVPLMVARFINRDVCPPSLKNTGIALVLIFMPTLLVAAQPDLGTSILVALSGLFVLFLSGLSWRLIGVAVVLVAAFIPILWFFLMHDYQRQRVMMLLDPESDPLGAGYHIIQSKIAIGSGGLRGKGWLHGTQSQLEFLPERHTDFIFAVLAEELGLVGILILLALYILLIMRGLWIAARAQTTFGRVMAGGLMLILFVYVFVNIGMVSGILPVVGVPLPLVSYGGSALIVLMAGFGIVMSIHTHRKMLSKSV | – | binds
